Reference: patent publication US20230106864A1, “COMPOSITIONS AND METHODS FOR THE TREATMENT OF INTRACELLULAR BACTERIAL INFECTIONS” (Endolytix Technology, Inc., priority 2020, published 2023)

Each compound was assayed on M. abscessus (assay: Cell growth assay of M. abscessus with ABlα plus antibiotic, Fractional Inhibitory Concentration (FIC) index). Conditions: antibiotic in combination with ABlα; FIG. 5.
Type: cell-based, Mycobacterium abscessus

How did the “effect on attenuation of M. abscessus growth by FIC index” value (“effect on attenuation … by FIC index” for short) turn out when C[C@@H](O)[C@H]1C(=O)N2C(C(=O)[O-])=C(SC3Cn4cnc[n+]4C3)[C@H](C)[C@H]12 (stereo partly drawn) [biapenem] was run?
The value was “synergistic”.

CO[C@@]1(NC(=O)Cc2cccs2)C(=O)N2C(C(=O)O)=C(COC(N)=O)CS[C@@H]21 [cefoxitin] was tested. Which “effect on attenuation … by FIC index” value did it give?
Its value is “synergistic”.

With NCC[C@H](O)C(=O)N[C@@H]1C[C@H](N)[C@@H](O[C@H]2O[C@H](CN)[C@@H](O)[C@H](O)[C@H]2O)[C@H](O)[C@H]1O[C@H]1O[C@H](CO)[C@@H](O)[C@H](N)[C@H]1O [amikacin] as the compound, how does the “effect on attenuation … by FIC index” value read?
Its value is “synergistic”.
